The test system of the assay is eIF2-GTP-Met-tRNAi ternary complex. Briefly: Ternary complex assay (dual luciferase, firefly/renilla ratio) in stable KLN-tTA/pBISA-DL(ATF-4) cells; HTS and hit confirmation. Details: Activity 10 uM / Activity 2.5 uM / Activity 5 uM: unit not given here. Type of assay: cell-based, mouse. Conditions: for Activity 2.5 uM: compound at 2.5 uM; for Activity 2.5 uM / Activity 10 uM / Activity 5 uM: confirmed hits of the screen (Table 5); for Activity 10 uM: compound at 10 uM; for Activity 5 uM: compound at 5 uM.

The values that follow come from patent US9932300B2, “N,N′-diarylurea compounds and N,N′-diarylthiourea compounds as inhibitors of translation initiation” (President and Fellows of Harvard College, priority 2009, dated 2018).

In the case of `c1ccc2c(O[Si](Oc3cccc4ccccc34)(Oc3cccc4ccccc34)Oc3cccc4ccccc34)cccc2c1` [Compound 401234], the “Activity 2.5 uM” value is 1 and the “Activity 10 uM” value worked out at 24.65.

In the case of `COc1ccc(/C=N/Nc2nc(-c3cc4oc(=O)n(C)c4cc3Cl)cs2)cc1OC` [Compound 632134], the “Activity 2.5 uM” value was found to be 1.26 and the “Activity 10 uM” value came out at 3.5.

Take `Cc1ccc(O)c(-n2nc3ccccc3n2)c1` [Compound 91885]: the “Activity 5 uM” value is recorded as 3.742 and the “Activity 10 uM” value was found to be 4.473. Consider `CC(C)(C)C1=CC(=CC=C2C=CN(CCCCCCCCCCCO)C=C2)C=C(C(C)(C)C)C1=O` [Compound 603854], for which the “Activity 2.5 uM” value turned out to be 0.93 and the “Activity 10 uM” value is given as 4.19. The like results for `Cc1ccc(C2C(Cl)C(=O)N2n2cnc3ccccc3c2=O)cc1` (stereo not shown) [Compound 650027] were, in that order, 4.2 and 4.42. For the compound `Cc1ccc(NNc2ccc(C)cc2)cc1` [Compound 86544], the “Activity 5 uM” value was 3.954 and the “Activity 10 uM” value was 4.845.

On to `S=C(N=Nc1ccccc1)N[N-]c1ccccc1.S=C(N=Nc1ccccc1)N[N-]c1ccccc1.[Zn+2]` [Compound 293939], for which the “Activity 2.5 uM” value came to 1.54 and the “Activity 10 uM” value was 7.78.

Regarding `Oc1ccc(-c2nnc(-c3ccc(O)cc3)nn2)cc1` [Compound 174877], the “Activity 2.5 uM” value is 3.04 and the “Activity 10 uM” value was 3.29. The corresponding values for `Cl.Clc1ccc(C2NC(c3ccc(Cl)cc3)NC(c3ccc(Cl)cc3)N2)cc1` (stereo not shown) [Compound 135155] are 0.94 and 7.19. The like results for `N#Cc1nc2c(nc1C#N)-c1ccccc1/C2=C1/C(=O)Cc2ccccc21` [Compound 193713] were, in that order, 0.55 and 24.26. For the compound `COc1ccc(N=Nc2cc(C)c(C)cc2O)cc1` [Compound 209832], the “Activity 5 uM” value was 9.509 and the “Activity 10 uM” value is reported as 4.7795. With `[C-]#[O+].[C-]#[O+].[C-]#[O+].[C-]#[O+].[C-]#[O+].[CH3][Sn]([Cl])[c]1ccccc1.[Mn]` [Compound 319699], the “Activity 2.5 uM” value is 0.29 and the “Activity 10 uM” value is 3.62. The like results for `O=C(Nc1ccccc1F)C(Br)C(Br)c1ccccc1` (stereo not shown) [Compound 205548] were, in that order, 2.94 and 4.01.

In the case of `Cc1ccc(-c2cc(-c3ccccc3)[s+]c3ccc(C)cc23)cc1` [Compound 55867], the “Activity 5 uM” value came out at 1.1 and the “Activity 10 uM” value is 3.2.

As for `Cc1cc(/C=N/Nc2ccc3ccccc3n2)c(O)c2ncccc12` [Compound 94029], the “Activity 5 uM” value was 1.934 and the “Activity 10 uM” value is listed as 3.2135. As to `CCCCCCCCCCCCCCCCCC[N+](C)(C)C.O=S(=O)([O-])c1ccccc1` [Compound 74568], the “Activity 5 uM” value is 2.1 and the “Activity 10 uM” value came to 4.8.

`Clc1nc2cc3c(cc2n2cccc12)oc1ccccc13` [Compound 347816]: the “Activity 5 uM” value came out at 3.143 and the “Activity 10 uM” value is reported as 3.5245. For `CCC[CH2][Sn]1([CH2]CCC)[O]c2ccccc2NCC[N]1c1ccccc1O` [Compound 628577], the “Activity 2.5 uM” value was determined as 1.45 and the “Activity 10 uM” value was 3.06. For the compound `Cc1ccc(S(=O)(=O)C(c2ccccc2)C(Br)C(=O)c2ccccc2)cc1` (stereo not shown) [Compound 280894], the “Activity 2.5 uM” value is given as 2.06.

For the compound `O=C(NC(=O)c1c(F)cccc1F)Nc1nc2ccccc2s1` [Compound 298153], the “Activity 2.5 uM” value stood at 3.67 and the “Activity 10 uM” value came to 3.43. As for `CC(C)[S-].CC(C)[S-].[Pt+2].c1ccc([PH+](c2ccccc2)c2ccccc2)cc1.c1ccc([PH+](c2ccccc2)c2ccccc2)cc1` [Compound 300559], the “Activity 2.5 uM” value was found to be 0.71 and the “Activity 10 uM” value came out at 4.71. As for `[C-]#[N+]C1CCCCC1.[C-]#[N+]C1CCCCC1.[C-]#[N+]C1CCCCC1.[C-]#[N+]C1CCCCC1.[C-]#[N+]C1CCCCC1.[C-]#[N+]C1CCCCC1.[Mn]` [Compound 231980], the “Activity 5 uM” value is recorded as 4.1 and the “Activity 10 uM” value is reported as 3.8. On to `CC(/C=C/c1cccc(C)c1)=N\NC(N)=O` [Compound 366583], for which the “Activity 5 uM” value came to 2.409 and the “Activity 10 uM” value is 3.134. As to `F[P-](F)(F)(F)(F)F.[C-]#[O+].[C-]#[O+].[CH]1[CH][CH][CH][CH]1.[Mo].c1ccc(P(CC[As](c2ccccc2)c2ccccc2)CC[As](c2ccccc2)c2ccccc2)cc1` [Compound 633346], the “Activity 2.5 uM” value is 8.05 and the “Activity 10 uM” value was 11.64.

With `CSc1ccc(NC(=O)c2ccc(Cl)cc2Cl)cc1` [Compound 204668], the “Activity 5 uM” value came to 5.386 and the “Activity 10 uM” value stood at 4.923. For `CC(=O)OC1CCC2(C)C3CCC4(C)C(CCC4(Br)C(=O)CBr)C3CC(Br)C2(Br)C1` (stereo not shown) [Compound 45884], the “Activity 2.5 uM” value was 0.47 and the “Activity 10 uM” value came to 16.23. On to `O=C(CCl)Nc1cc(Cl)ccc1Cl` [Compound 8275], for which the “Activity 2.5 uM” value turned out to be 0.81. Consider `O=[N+]([O-])c1ccc(OCc2ccc(CBr)cc2)c(Cl)c1` [Compound 212379], for which the “Activity 2.5 uM” value was 2.28 and the “Activity 10 uM” value is 4.4. The like results for `Cn1/c(=N\S(=O)(=O)c2ccccc2)n(S(=O)(=O)c2ccccc2)c2ccccc21` [Compound 690404] were, in that order, 1.46 and 3.03.

Turning to `O=S(=O)(Cc1ccccc1)CC(Br)CBr` (stereo not shown) [Compound 229344], the “Activity 2.5 uM” value was 1.28 and the “Activity 10 uM” value worked out at 4.4. On to `CS(=O)(=O)c1ccc(/C=C2\C=Cc3ccccc32)cc1` [Compound 176657], for which the “Activity 2.5 uM” value came to 1.67 and the “Activity 10 uM” value turned out to be 4.64. As for `C/C=C(/C)C(=O)O[C@H]1C(C)=C2[C@H]([C@@H]1OC(=O)CCCCCCC)[C@@](C)(OC(C)=O)C[C@H](OC(=O)CCC)[C@@]1(O)[C@H]2OC(=O)[C@@]1(C)O` [thapsigargin, reference compound], where the note is “KLN-tTA/pBISA-DL(ATF-4) colonies, assay validation”, the “Effect on firefly/renilla luciferase ratio” value is “increase in the ratio of firefly activity relative to renilla activity”. Regarding `Cc1ccnc(NC(=O)Nc2cc(F)ccc2F)c1` [Compound 213710], the “Activity 5 uM” value amounted to 4.183 and the “Activity 10 uM” value is 5.091. With `c1ccc(P(CC[As](c2ccccc2)c2ccccc2)CC[As](c2ccccc2)c2ccccc2)cc1` [Compound 635022], the “Activity 2.5 uM” value amounted to 0.96 and the “Activity 10 uM” value is listed as 4.8. With `Clc1ccc(/C=N\N2CCCCCC2)cc1` [Compound 82278], the “Activity 5 uM” value is given as 3.288 and the “Activity 10 uM” value came out at 3.1525. The like results for `O=C(OC1CC2CC1C1CC3OC3C21)c1ccccc1` (stereo not shown) [Compound 94585] were, in that order, 3.148 and 3.525. Regarding `C=CC(C)(C)c1c(OC(C)=O)cc2oc3c(OC(C)=O)c(OC(C)=O)cc(CC=C(C)C)c3c(=O)c2c1O` [Compound 107229], the “Activity 2.5 uM” value is on record as 1.06 and the “Activity 10 uM” value amounted to 3.14.

As to `NNC(=S)N/N=C/c1ccc([N+](=O)[O-])s1` [Compound 170334], the “Activity 2.5 uM” value turned out to be 0.98 and the “Activity 10 uM” value is listed as 4.45. Consider `CCc1ccc(NC(=O)Nc2ccc(Cl)c(Cl)c2)cc1` [Compound 204750], for which the “Activity 2.5 uM” value was 3.53 and the “Activity 10 uM” value came out at 24.26. Take `CCC[CH2][Sn]([CH2]CCC)([CH2]CCC)[O]c1cccccc1=O` [Compound 644907]: the “Activity 2.5 uM” value is 4.97. With `O=C(C=Cc1ccc([N+](=O)[O-])o1)C=Cc1ccc([N+](=O)[O-])o1` [Compound 21620], the “Activity 2.5 uM” value came out at 0.74 and the “Activity 10 uM” value turned out to be 16.28.

With `Br.CCCCCCCCCCCCNCCCc1ccccc1` [Compound 402291], the “Activity 2.5 uM” value amounted to 0.73 and the “Activity 10 uM” value is 4.43. The like results for `CC(=O)N(C)c1ccc(/C=C2\C=Cc3ccccc32)cc1` [Compound 103749] were, in that order, 2.76 and 5.25.

As to `C[Si](C)(C)c1ccc(CC2(Cc3ccc([Si](C)(C)C)cc3)CCNC2)cc1` [Compound 634157], the “Activity 2.5 uM” value was found to be 0.8 and the “Activity 10 uM” value is recorded as 3.99.

For `CC(C)(C)C1CCC(NC(=O)C(Cl)Cl)CC1.CC(C)(C)C1CCC(NC(=O)C(Cl)Cl)CC1` (stereo not shown) [Compound 173000], the “Activity 2.5 uM” value amounted to 0.61 and the “Activity 10 uM” value stood at 3.68.

For `CC(C)CCCC(C)C1CCC2C3CC=C4CC([n+]5cccc6ccccc65)CCC4(C)C3CCC12C.Cc1ccc(S(=O)(=O)[O-])cc1` (stereo not shown) [Compound 32999], the “Activity 2.5 uM” value came to 2.41 and the “Activity 10 uM” value turned out to be 6.87. The like results for `COc1ccccc1NC(=S)N/N=C\c1cc(N=Nc2ccccc2)cc(OC)c1O` [Compound 621792] were, in that order, 1.27 and 3.75.

For `F[C-](C(F)(F)F)C(F)(F)F.F[P-](F)(F)(F)(F)F.[CH]1[CH][CH][CH][CH]1.[Co+2].c1ccc(P(CCP(c2ccccc2)c2ccccc2)c2ccccc2)cc1` [Compound 634014], the “Activity 2.5 uM” value came out at 11.17 and the “Activity 10 uM” value is 12.92. As for `C=C1C(=O)OC2CCCCC3OC3C12` (stereo not shown) [Compound 258618], the “Activity 2.5 uM” value stood at 0.85 and the “Activity 10 uM” value was found to be 3.2. With `C[C@]12CC[C@@H]3c4ccc(Oc5nc(N6CC6)nc(N6CC6)n5)cc4CC[C@H]3[C@@H]1CCC2=O` [Compound 106909], the “Activity 5 uM” value is reported as 1.2 and the “Activity 10 uM” value was 3.4. Regarding `CC(=O)NC1=CC(=O)C=CC1=Nc1ccc(N(C)C)cc1C` [Compound 14739], the “Activity 2.5 uM” value worked out at 1.12 and the “Activity 10 uM” value is reported as 4.06. `CC(=O)[O][Sn]([c]1ccccc1)([c]1ccccc1)[c]1ccccc1` [Compound 76068]: the “Activity 2.5 uM” value was found to be 1.02 and the “Activity 10 uM” value came to 3.68.
